Experimental data from ChEMBL document CHEMBL5126546, “Advancements in the development of multi-target directed ligands for the treatment of Alzheimer's disease” (Bioorg Med Chem, 2022).
One block for each compound: values may come before it.

Tests used:
[1] = biological target: Glutamate [NMDA] receptor; test: Inhibition of NMDA receptor (unknown origin); assay type: protein-complex assay, Homo sapiens
[2] = biological target: Glutamate receptor ionotropic AMPA (Homo sapiens, UniProt P42261+P42262+P42263+P48058); test: Inhibition of AMPA receptor (unknown origin); assay type: protein-complex assay
[3] = biological target: T1, Amyloid-beta precursor protein (Homo sapiens, UniProt P05067); test: Inhibition of amyloid beta (1 to 42) (unknown origin) self aggregation at 40 uM and measured after 24 hrs by Thioflavin T based fluorometric assay
T1 sequence (P05067 whole entry): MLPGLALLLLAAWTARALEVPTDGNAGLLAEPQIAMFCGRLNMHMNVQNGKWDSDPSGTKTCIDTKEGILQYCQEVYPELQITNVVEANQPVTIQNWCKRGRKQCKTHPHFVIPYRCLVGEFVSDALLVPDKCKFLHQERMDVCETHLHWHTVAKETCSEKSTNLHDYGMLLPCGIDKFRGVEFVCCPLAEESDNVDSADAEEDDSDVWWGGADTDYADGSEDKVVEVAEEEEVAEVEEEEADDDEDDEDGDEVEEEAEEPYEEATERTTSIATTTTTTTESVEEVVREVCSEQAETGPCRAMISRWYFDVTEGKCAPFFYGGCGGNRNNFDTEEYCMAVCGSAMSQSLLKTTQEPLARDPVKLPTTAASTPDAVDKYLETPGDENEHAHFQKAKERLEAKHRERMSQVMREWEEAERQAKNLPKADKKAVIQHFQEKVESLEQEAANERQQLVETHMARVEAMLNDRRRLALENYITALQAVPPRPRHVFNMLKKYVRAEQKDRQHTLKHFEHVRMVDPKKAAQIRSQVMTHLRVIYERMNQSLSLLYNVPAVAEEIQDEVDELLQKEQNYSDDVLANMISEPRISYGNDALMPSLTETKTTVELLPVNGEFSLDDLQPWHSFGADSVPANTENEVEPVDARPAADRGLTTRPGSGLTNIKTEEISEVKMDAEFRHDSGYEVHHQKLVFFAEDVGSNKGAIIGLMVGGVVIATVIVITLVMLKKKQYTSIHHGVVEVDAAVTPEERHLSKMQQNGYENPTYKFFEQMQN

[4] = biological target: T2, Beta-secretase 1 (Homo sapiens, UniProt P56817); test: Inhibition of BACE-1 (unknown origin)
T2 sequence (P56817 whole entry): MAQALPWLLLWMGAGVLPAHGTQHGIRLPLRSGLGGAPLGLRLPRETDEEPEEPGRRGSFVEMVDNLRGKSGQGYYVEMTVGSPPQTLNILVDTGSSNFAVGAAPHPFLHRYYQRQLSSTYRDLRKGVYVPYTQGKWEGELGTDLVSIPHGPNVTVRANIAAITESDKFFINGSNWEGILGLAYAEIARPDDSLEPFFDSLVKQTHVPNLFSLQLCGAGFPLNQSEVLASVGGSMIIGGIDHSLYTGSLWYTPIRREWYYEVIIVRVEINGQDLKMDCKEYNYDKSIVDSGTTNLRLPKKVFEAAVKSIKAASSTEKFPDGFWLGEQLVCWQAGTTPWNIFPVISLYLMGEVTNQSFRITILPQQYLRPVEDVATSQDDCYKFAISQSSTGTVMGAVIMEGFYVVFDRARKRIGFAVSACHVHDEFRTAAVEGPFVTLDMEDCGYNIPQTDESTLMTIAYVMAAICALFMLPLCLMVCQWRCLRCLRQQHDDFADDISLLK

[5] = biological target: T3, Acetylcholinesterase (Electrophorus electricus, UniProt O42275); test: Inhibition of Electrophorus electricus AchE using acetylthiocholine iodide as substrate preincubated for 5 mins followed by substrate addition and measured after 5 mins by Ellman's method
T3 sequence (O42275 whole entry): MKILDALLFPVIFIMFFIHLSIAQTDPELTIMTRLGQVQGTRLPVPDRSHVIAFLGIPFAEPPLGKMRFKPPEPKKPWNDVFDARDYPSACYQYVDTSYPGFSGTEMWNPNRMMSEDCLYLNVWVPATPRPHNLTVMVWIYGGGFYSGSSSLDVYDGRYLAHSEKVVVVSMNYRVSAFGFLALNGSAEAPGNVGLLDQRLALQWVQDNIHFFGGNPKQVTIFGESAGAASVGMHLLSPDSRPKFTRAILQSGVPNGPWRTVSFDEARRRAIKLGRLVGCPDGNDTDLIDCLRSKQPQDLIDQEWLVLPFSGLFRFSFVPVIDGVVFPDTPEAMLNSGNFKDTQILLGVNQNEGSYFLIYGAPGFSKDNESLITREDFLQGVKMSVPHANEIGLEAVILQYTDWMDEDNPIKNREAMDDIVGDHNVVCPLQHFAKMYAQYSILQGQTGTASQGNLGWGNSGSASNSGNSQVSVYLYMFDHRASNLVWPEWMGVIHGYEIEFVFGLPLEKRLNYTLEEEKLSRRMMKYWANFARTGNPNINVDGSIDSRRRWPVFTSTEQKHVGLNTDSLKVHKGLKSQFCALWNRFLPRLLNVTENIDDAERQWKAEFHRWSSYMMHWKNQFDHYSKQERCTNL

[6] = biological target: Cholinesterase (Equus caballus, UniProt P81908); test: Inhibition of equine serum BuChE using butyrylthiocholine iodide as substrate preincubated for 5 mins followed by substrate addition and measured after 5 mins by Ellman's method
[7] = biological target: T2, Beta-secretase 1; test: Inhibition of recombinant human BACE-1 using MCA-SEVNLDAEFR-Ednp-KRR-NH2.3TFA as substrate incubated for 2 hrs by Varioskan-flash multimode plate reader analysis
[8] = test system: Rattus norvegicus; test: Antiinflammatory activity in formalin induced Sprague-Dawley rat chronic inflammation model assessed as inhibition of paw edema at 50 mg/kg, po for 1 hr followed by formalin injection for 5 days relative to control; assay type: functional; parameters: scale not given: the % may be the effect or the level left; settings: time 5 day
[9] = test system: Rattus norvegicus; test: Antiinflammatory activity in carrageenan induced Sprague-Dawley rat acute inflammation model assessed as inhibition of paw edema at 50 mg/kg, po for 1 hr followed by carrageenan injection snd measured after 3 hrs relative to control; assay type: functional; parameters: scale not given: the % may be the effect or the level left; settings: time 4 hrs
[10] = biological target: T3, Acetylcholinesterase; test: Inhibition of Electrophorus electricus AchE using acetylthiocholine iodide as substrate preincubated for 15 mins followed by substrate addition and measured for 6 mins by DTNB reagent based Ellman's method
[11] = biological target: Fatty-acid amide hydrolase 1 (Homo sapiens, UniProt O00519); test: Inhibition of FAAH (unknown origin) using 7-amino-4-methylcoumarin-arachidonamide as substrate preincubated for 5 mins followed by substrate addition and measured after 30 mins by fluorescence based assay
Chain of Fatty-acid amide hydrolase 1 (O00519 whole entry): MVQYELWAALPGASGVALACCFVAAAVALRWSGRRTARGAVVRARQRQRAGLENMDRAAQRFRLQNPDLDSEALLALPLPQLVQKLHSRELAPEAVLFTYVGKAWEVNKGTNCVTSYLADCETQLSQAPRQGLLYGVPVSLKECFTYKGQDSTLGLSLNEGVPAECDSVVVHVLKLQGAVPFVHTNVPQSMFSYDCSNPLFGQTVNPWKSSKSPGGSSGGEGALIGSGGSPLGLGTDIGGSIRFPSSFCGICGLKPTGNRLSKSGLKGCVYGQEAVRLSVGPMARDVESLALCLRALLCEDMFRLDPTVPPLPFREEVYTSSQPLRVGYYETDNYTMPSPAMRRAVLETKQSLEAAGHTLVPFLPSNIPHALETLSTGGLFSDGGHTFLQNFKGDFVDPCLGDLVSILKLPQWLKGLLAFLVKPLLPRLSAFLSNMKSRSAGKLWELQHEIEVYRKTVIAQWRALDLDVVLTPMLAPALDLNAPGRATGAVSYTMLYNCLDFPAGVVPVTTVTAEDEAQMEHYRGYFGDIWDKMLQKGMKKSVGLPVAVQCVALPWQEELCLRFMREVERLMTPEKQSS

[12] = biological target: T4, Acetylcholinesterase (Homo sapiens, UniProt P22303); test: Inhibition of AChE (unknown origin) using acetylthiocholine iodide as substrate preincubated for 45 mins followed by substrate addition by DTNB reagent based Ellman's method
T4 sequence (P22303 whole entry): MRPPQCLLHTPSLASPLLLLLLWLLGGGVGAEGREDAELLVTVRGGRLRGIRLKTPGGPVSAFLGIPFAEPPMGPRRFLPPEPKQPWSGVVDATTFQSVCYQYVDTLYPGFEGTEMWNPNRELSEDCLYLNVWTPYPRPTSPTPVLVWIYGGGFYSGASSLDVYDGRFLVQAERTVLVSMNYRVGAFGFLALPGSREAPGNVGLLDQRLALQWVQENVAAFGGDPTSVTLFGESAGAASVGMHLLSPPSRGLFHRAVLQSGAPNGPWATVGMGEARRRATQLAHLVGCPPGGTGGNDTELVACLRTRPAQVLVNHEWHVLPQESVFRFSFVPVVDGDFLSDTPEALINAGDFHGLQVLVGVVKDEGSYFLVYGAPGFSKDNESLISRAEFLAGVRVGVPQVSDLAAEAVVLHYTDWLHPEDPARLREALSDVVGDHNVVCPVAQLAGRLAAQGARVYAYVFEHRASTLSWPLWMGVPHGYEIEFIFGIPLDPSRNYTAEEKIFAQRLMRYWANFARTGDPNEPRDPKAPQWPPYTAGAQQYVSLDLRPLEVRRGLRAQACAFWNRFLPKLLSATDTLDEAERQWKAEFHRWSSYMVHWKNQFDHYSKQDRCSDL

[13] = Antioxidant activity assessed as DPPH radical scavenging activity incubated for 30 mins by DPPH assay; assay type: functional
[14] = Antioxidant activity assessed as NO radical scavenging activity incubated for 150 mins in presence of sodium nitroprusside by griess reagent based assay; assay type: functional
[15] = biological target: T3, Acetylcholinesterase; test: Inhibition of Electrophorus electricus AchE incubated for 15 mins by Ellman's method
[16] = Antioxidant activity of compound assessed as trolox equivalent of ORAC radical scavenging activity by ORAC-FL assay; assay type: functional
[17] = biological target: Amine oxidase [flavin-containing] B (Homo sapiens, UniProt P27338); test: Inhibition of recombinant human MAO-B assessed as amount of 4-hydroxyquinoline using kynuramine as a substrate incubated for 30 mins by fluorescence spectrophotometry
[18] = biological target: Amine oxidase [flavin-containing] A (Homo sapiens, UniProt P21397); test: Inhibition of recombinant human MAO-A assessed as amount of 4-hydroxyquinoline using kynuramine as a substrate incubated for 30 mins by fluorescence spectrophotometry
Chain of Amine oxidase [flavin-containing] A (P21397 whole entry): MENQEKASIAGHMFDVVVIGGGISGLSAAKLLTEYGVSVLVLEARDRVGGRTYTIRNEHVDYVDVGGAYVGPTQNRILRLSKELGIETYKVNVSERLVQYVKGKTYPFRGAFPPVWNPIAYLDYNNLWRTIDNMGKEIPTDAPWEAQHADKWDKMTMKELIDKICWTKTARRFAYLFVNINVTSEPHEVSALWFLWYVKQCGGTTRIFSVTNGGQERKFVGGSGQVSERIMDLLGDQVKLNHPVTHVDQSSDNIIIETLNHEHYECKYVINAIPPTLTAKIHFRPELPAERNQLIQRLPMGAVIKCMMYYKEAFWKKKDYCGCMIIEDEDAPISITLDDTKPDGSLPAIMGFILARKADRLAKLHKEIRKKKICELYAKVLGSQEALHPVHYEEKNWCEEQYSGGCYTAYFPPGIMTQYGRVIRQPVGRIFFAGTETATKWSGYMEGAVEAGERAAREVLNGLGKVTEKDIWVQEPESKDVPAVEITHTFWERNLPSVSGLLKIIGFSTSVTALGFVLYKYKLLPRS

[19] = biological target: T5, Cholinesterase (Homo sapiens, UniProt P06276); test: Inhibition of BuChE (unknown origin) incubated for 15 mins by Ellman's method
T5 sequence (P06276 whole entry): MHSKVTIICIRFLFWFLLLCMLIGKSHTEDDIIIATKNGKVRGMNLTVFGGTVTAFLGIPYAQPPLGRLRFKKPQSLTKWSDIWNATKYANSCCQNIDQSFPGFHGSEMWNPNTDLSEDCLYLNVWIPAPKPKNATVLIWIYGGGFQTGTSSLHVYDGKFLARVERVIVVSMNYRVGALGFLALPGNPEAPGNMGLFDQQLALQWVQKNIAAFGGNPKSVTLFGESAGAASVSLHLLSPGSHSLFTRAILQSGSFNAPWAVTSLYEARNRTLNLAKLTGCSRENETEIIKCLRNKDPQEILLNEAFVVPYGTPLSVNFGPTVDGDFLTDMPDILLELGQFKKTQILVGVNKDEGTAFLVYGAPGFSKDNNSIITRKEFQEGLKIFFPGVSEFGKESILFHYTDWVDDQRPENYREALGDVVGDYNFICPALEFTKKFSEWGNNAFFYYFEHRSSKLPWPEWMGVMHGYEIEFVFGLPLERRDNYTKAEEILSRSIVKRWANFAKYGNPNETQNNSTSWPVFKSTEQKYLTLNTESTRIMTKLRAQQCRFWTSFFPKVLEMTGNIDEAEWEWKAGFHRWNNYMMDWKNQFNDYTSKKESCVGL

[20] = Selectivity index, ratio of IC50 for inhibition of equine serum BuChE to IC50 for inhibition of electric eel AChE
[21] = biological target: Microtubule-associated protein tau (Homo sapiens) (UniProt P10636); test: Inhibition of tau aggregation (unknown origin) at 20 uM for 72 hrs by thioflavin S based fluorescence analysis
Chain of Microtubule-associated protein tau (Homo sapiens) (P10636 whole entry): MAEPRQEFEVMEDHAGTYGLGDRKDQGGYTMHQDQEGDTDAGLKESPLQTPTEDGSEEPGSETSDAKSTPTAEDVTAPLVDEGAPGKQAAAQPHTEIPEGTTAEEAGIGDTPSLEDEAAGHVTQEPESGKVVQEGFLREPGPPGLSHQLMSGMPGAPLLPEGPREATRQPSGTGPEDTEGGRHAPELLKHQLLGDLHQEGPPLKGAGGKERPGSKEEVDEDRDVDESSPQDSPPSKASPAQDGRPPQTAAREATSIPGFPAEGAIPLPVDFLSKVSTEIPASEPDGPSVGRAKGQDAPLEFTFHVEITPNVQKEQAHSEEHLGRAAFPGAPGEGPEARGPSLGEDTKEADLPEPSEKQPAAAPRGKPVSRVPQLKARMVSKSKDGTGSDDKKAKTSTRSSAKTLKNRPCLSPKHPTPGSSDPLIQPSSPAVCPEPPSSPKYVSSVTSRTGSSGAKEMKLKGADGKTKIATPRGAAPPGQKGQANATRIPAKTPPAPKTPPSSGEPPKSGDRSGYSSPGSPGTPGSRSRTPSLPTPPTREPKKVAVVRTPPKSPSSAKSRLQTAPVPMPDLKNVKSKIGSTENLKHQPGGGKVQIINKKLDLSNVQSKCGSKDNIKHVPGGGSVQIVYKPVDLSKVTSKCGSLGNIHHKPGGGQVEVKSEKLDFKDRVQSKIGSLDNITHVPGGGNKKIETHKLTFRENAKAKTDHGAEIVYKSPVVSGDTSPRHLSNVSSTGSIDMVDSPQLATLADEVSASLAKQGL

[22] = biological target: T1, Amyloid-beta precursor protein; test: Inhibition of self-induced amyloid beta (1 to 42) (unknown origin) aggregation at 25 uM
[23] = biological target: T5, Cholinesterase; test: Inhibition of BuChE (unknown origin)
[24] = biological target: T1, Amyloid-beta precursor protein; test: Inhibition of self-induced amyloid beta (1 to 42) (unknown origin) disaggregation at 25 uM
[25] = biological target: T4, Acetylcholinesterase; test: Inhibition of recombinant human AChE using Amplex red, acetylthiocholine as substrate preincubated for 15 mins followed by substrate addition and measured after 30 mins by microplate fluorescence reader analysis
[26] = test system: SH-SY5Y; test: Cytotoxicity against human SH-SY5Y cells assessed as reduction in cell viability for 24 hrs by MTT assay; assay type: functional, cell-based
[27] = biological target: T5, Cholinesterase; test: Inhibition of recombinant human BuChE using butyrylthiocholine iodide as substrate preincubated for 5 mins followed by substrate addition by Ellman's method
[28] = test system: HepG2; test: Cytotoxicity against human HepG2 cells assessed as reduction in cell viability for 24 hrs by MTT assay; assay type: functional, cell-based; settings: HepG2, 24 h
[29] = biological target: T4, Acetylcholinesterase; test: Inhibition of recombinant human AChE using acetylthiocholine iodide as substrate preincubated for 5 mins followed by substrate addition by Ellman's method
[30] = biological target: T3, Acetylcholinesterase; test: Inhibition of Electrophorus electricus AChE using acetylthiocholine iodide as substrate preincubated for 5 mins followed by substrate addition and measured for 5 mins by spectrophotometric based Ellman's method
[31] = biological target: T6, Gamma-secretase (Homo sapiens) (UniProt Q96BI3+Q9NZ42+Q8WW43+P49768+Q92542+P49810); test: Inhibition of gamma secretase in human H4 cells expressing human wild type APP assessed as reduction in amyloid beta 1-40 level at 100 uM for 12 hrs by ELISA; assay type: cell-based
[32] = biological target: T6, Gamma-secretase (Homo sapiens); test: Inhibition of gamma secretase in human H4 cells expressing human wild type APP assessed as reduction in amyloid beta 1-42 level at 100 uM for 12 hrs by ELISA; assay type: cell-based

Compound: NCCCCCCNC1(c2ccccc2)CCCCC1
IC50 [1]: 0.24 µM
IC50 [2]: 1.7 µM

inhibition [3]: 33.7%
Compound: COc1cc(-c2nc3ccccc3s2)ccc1OCC(=O)NCCCNc1c2c(nc3ccccc13)CCCC2

IC50 [4]: 20.2 µM
Compound: O=C(OC1O[C@@H]2COC(=O)c3cc(O)c(O)c(O)c3-c3c(cc(O)c(O)c3O)C(=O)O[C@H]2[C@H](OC(=O)c2cc(O)c(O)c(O)c2)[C@H]1OC(=O)c1cc(O)c(O)c(O)c1)c1cc(O)c(O)c(O)c1 (some centres not stated) [TELLIMAGRANDIN II]

Compound: CCCN1CCN(c2ncc(CCN(C)CCCc3ccccc3)s2)CC1
IC50 [5]: 14 µM
IC50 [6]: 14.6 µM

IC50 [7]: 3 µM
Compound: Cc1cc2nc(-c3cnc(N)s3)c(-c3cnc(N)s3)nc2cc1C
Activity [8]: 55%
Activity [9]: 69%

Compound: CCCCCCCNC(=O)Oc1cccc(CN(C)CCCCCOc2ccc3[nH]c(=O)ccc3c2)c1
IC50 [10]: 0.39 µM
IC50 [11]: 0.83 µM

Compound: CC1(C)CCCC2(C)OC(=O)C=C12 (racemic) [DIHYDROACTINIDIOLIDE]
IC50 [12]: 0.03 µM
IC50 [13]: 0.05 µM
IC50 [14]: 50 µM

Compound: CCN(CCCCOc1ccc(/C=C/C(=O)N2CCc3ccccc3C2)cc1OC)Cc1ccccc1
IC50 [15]: 12.1 µM
Activity [16]: 0.53 equiv
IC50 [17]: 8.6 µM
IC50 [18]: 6.3 µM
IC50 [19]: 8.9 µM

Compound: Cc1nc(C)c(C(=O)OCCCOC(=O)c2ccccn2)nc1C
Ratio IC50 [20]: 1.32e+07

inhibition [21]: 37.3%
Compound: CC1=C[C@H]2c3c(O)cc(-c4cc5ccc(O)cc5o4)cc3O[C@@]3(c4ccc(O)cc4O)Oc4cc(O)ccc4[C@H](C1)[C@@H]23

Compound: COc1cc(/C=C/C(=O)N2CCC(c3ncccn3)CC2)ccc1O
inhibition [22]: 61.1%
IC50 [23]: 3.4 µM
inhibition [24]: 53.1%

Compound: C#CCOc1cccc(-c2cc(-c3ccc(OCCN4CCOCC4)cc3)nc(C)n2)c1
IC50 [25]: 0.00954 µM

Compound: COc1ccc2nc3c(c(N)c2c1)C1CC=CC(C3)C1 (configuration not stated)
IC50 [26]: 17.8 µM
IC50 [27]: 3.76 µM
IC50 [28]: 14.9 µM
IC50 [29]: 2.63 µM

Compound: O=c1c2ccc(OCCN3CCCC3)cc2oc2cc(OCCN3CCCC3)cc(O)c12
IC50 [30]: 0.12 µM

inhibition [31]: 10%
inhibition [32]: 22%
Compound: O=S(=O)(NC1C2CC3CC(C2)CC1C3)c1cccs1 (configuration not stated)
